Results on 7 compounds are retold here after ChEMBL document CHEMBL1154617, “Synthesis and biological evaluation of 17beta-hydroxysteroid dehydrogenase type 1 (17beta-HSD1) inhibitors based on a thieno[2,3-d]pyrimidin-4(3H)-one core” (J Med Chem, 2009).

SMILES strings stand for the structures. Calls of active or inactive are those of the source. The calls are words filed in the database; no cut-off is given here.

One experiment has as its target Estrogen receptor beta (Homo sapiens, UniProt Q92731). The experiment in a line: Activity at human recombinant ERbeta by fluorescence polarization assay. In general terms: Fluorescence polarisation rises when a labelled molecule tumbles more slowly, as on binding a larger partner.
Experiment [1] deals with T1, 17-beta-hydroxysteroid dehydrogenase type 2 (Homo sapiens) (UniProt P37059).
T1 sequence (whole entry): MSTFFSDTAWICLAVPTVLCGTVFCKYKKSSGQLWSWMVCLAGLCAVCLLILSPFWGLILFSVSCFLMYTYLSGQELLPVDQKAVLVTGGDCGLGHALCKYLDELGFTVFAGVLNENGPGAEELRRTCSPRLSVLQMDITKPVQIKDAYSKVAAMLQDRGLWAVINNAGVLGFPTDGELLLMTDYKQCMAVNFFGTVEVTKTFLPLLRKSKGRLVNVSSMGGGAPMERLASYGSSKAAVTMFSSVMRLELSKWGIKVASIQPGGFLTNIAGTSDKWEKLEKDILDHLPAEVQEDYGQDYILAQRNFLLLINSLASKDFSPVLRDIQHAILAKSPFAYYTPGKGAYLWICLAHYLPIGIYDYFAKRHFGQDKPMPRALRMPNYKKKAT
Kind of experiment: Inhibition of human recombinant 17beta-HSD2 at 0.1 uM by cell-free assay.

A further experiment deals with T2, Estrogen receptor (Homo sapiens, UniProt P03372).
T2 sequence (P03372 whole entry): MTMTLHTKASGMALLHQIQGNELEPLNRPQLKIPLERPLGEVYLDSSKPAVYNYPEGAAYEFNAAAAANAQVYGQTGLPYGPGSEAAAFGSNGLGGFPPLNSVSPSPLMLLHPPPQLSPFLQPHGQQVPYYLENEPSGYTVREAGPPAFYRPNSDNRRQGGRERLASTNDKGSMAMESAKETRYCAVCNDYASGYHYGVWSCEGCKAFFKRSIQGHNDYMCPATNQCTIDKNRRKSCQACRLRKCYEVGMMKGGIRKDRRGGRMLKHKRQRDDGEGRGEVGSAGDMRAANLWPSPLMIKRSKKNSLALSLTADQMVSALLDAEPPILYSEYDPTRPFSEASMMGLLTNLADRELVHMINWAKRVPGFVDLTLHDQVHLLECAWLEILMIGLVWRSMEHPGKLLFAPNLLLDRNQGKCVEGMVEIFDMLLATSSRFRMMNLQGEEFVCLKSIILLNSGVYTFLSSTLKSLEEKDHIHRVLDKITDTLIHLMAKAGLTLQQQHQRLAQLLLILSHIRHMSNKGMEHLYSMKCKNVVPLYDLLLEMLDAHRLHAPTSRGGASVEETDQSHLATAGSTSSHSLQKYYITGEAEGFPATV
The experiment in a line: Activity at human recombinant ERalpha by fluorescence polarization assay.

In experiment [2] the target is T1, 17-beta-hydroxysteroid dehydrogenase type 2 (Homo sapiens). Kind of experiment: Inhibition of human recombinant 17beta-HSD2 at 1 uM by cell-free assay.
For experiment [3], the target named is T3, 17-beta-hydroxysteroid dehydrogenase type 1 (Homo sapiens) (UniProt P14061).
T3 sequence (whole entry): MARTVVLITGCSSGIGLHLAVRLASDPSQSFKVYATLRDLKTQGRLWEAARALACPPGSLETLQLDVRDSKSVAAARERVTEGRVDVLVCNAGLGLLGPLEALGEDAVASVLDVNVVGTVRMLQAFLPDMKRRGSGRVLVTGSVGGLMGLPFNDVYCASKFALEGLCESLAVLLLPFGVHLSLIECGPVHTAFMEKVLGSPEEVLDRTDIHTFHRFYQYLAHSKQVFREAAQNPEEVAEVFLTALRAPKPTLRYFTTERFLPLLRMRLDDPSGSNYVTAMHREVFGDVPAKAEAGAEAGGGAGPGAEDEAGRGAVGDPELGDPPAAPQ
Kind of experiment: Inhibition of human recombinant 17beta-HSD1 expressed in human MCF7 cells at 1 uM by cell-based assay.

Experiment [4] deals with T3, 17-beta-hydroxysteroid dehydrogenase type 1 (Homo sapiens). The experiment in a line: Inhibition of human recombinant 17beta-HSD1 at 1 uM by cell-free assay. In kind it is single protein.
For experiment [5] the target is unchanged. The experiment in a line: Inhibition of human recombinant 17beta-HSD1 at 0.1 uM by cell-free assay. In kind it is single protein.
The target is the same in experiment [6]. The experiment in a line: Inhibition of human recombinant 17beta-HSD1 expressed in human MCF7 cells at 0.1 uM by cell-based assay.

Estrogen receptor beta, sequence (Q92731 whole entry): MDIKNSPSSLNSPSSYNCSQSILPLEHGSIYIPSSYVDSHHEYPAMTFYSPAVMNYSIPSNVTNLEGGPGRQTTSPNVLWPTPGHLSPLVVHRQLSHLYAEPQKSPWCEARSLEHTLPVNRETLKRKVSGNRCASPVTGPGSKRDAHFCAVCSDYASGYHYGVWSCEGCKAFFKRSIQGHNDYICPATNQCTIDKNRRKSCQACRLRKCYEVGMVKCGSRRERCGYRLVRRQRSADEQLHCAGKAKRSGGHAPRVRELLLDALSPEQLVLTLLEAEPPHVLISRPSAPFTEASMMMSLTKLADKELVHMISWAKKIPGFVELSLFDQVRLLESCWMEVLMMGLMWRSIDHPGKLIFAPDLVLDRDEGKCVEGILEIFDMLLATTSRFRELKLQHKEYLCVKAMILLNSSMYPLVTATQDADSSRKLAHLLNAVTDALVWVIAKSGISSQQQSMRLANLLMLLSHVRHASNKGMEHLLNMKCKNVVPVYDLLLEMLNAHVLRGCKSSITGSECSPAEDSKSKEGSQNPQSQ

`O=CC1=C(SC2CCCC2)c2sc3nc4n(c(=O)c3c2CC1)CCCCC4`: the values for the EC50 on Estrogen receptor beta and at Estrogen receptor were above 1 µM and above 10 µM, respectively. For the same compound, the inhibition entry in experiment [1] and in experiment [2] was “inactive” throughout. The inhibition – broadly, the share of the control response that was lost under treatment – in experiment [3] was 80.5%; in experiment [4] it was 87.4%; in experiment [5], 46.6%; in experiment [6] it was 40.3%.

Turning to `O=CC1=C(Sc2cccc(O)c2)c2sc3nc4n(c(=O)c3c2CC1)CCCCC4`, the EC50 on Estrogen receptor beta and at Estrogen receptor was above 1 µM each time. For the same compound, the inhibition in experiment [1] is 40.9%; in experiment [2], 48.1%; in experiment [3], 84.1%; in experiment [4], 96.5%; in experiment [5], 94.2%; in experiment [6], 52.6%.

Regarding `CCCSC1=C(C=O)CCc2c1sc1nc3n(c(=O)c21)CCCCCC3`, the EC50 at Estrogen receptor beta and on Estrogen receptor was above 1 µM throughout. The inhibition stood at 31.4% in experiment [1]; 36.9% in experiment [2]; 57% in experiment [3]; 74.7% in experiment [4]; 63.3% in experiment [5]; 15.6% in experiment [6].

As for `CC(C)(C)SC1=C(C=O)CCc2c1sc1nc3n(c(=O)c21)CCCCC3`, the EC50 (commonly the concentration giving half of the maximal effect) is above 1 µM at Estrogen receptor beta and above 10 µM at Estrogen receptor. Further, in experiment [1], the inhibition result is “inactive”. For the same compound, the inhibition in experiment [2] was 1.2%; in experiment [3] it was 87%; in experiment [4], 89.6%; in experiment [5], 49.8%; in experiment [6] it was 33.6%.

In the case of `O=CC1=C(SC2CCCCC2)c2sc3nc4n(c(=O)c3c2CC1)CCCCC4`, the EC50 is above 1 µM on Estrogen receptor beta and above 10 µM at Estrogen receptor. In addition, the inhibition entry in experiment [1] and in experiment [2] was “inactive” throughout. In addition, the inhibition amounted to 63.9% in experiment [3], 82.2% in experiment [4], 51.2% in experiment [5] and 32.7% in experiment [6].

Consider `O=Cc1ccc2c(sc3nc4n(c(=O)c32)CCCCC4)c1Sc1ccccc1`, for which the EC50 at Estrogen receptor beta and at Estrogen receptor was above 1 µM throughout. The inhibition result in experiment [1] and in experiment [2] was “inactive” in each case. In addition, the inhibition in experiment [3] was determined as 87.9%; in experiment [4], 88.4%; in experiment [5] it was 26.9%; in experiment [6], 15.1%.

As to `CCCSC1=C(C=O)CCc2c1sc1nc3n(c(=O)c21)CCCCC3`, the EC50 on Estrogen receptor beta and at Estrogen receptor was above 1 µM throughout. The inhibition entry in experiment [1] is “inactive”. In addition, the inhibition in experiment [2] came to 5.3%; in experiment [3], 100%; in experiment [4], 95.2%; in experiment [5] it was 72.9%; in experiment [6], 74%.
